Assay results taken from ChEMBL document CHEMBL4765442, “Anti-Giardia Drug Discovery: Current Status and Gut Feelings” (J Med Chem, 2020).
Values after ≈ are worked out from the molar mass of the structure shown.

Tests used:
Giardia intestinalis [1] = test: Antigiardial activity against Giardia intestinalis IMSS:0696:1 incubated for 48 hrs followed by wash out by hemocytometric counting method; format: functional, organism-based; conditions: Giardia duodenalis, IMSS:0696:1, 48 h
Giardia intestinalis [2] = test: Antigiardial activity against Giardia lamblia incubated for 48 hrs by ATPLite reagent based luminescence assay; format: functional, organism-based; conditions: Giardia duodenalis
Giardia intestinalis [3] = test: Antigiardial activity against Giardia lamblia 713M3 trophozoites incubated for 3 days by microscopic method; format: functional, Giardia duodenalis; conditions: time 3 day
Giardia intestinalis [4] = test: Antigiardial activity against Giardia lamblia GS/H7 trophozoites incubated for 3 days by microscopic method; format: functional, Giardia duodenalis; conditions: time 3 day
Giardia intestinalis [5] = test: Antimicrobial activity against Giardia lamblia BRIS/87/HEPU/713 trophozoites measured after 48 hrs by BacTiter-Glo cell viability assay; format: functional, organism-based; conditions: Giardia duodenalis, BRIS/87/HEPU/713, 48 h
[6] = Selectivity ratio of CC50 for human HeLa cells incubated for 2 days by alamarBlue reagent to IC50 for Giardia lamblia BRIS/87/HEPU/713 measured after 48 hrs by BacTiter-Glo cell viability assay; format: toxicity; conditions: read-out: Ratio CC50/IC50
Giardia intestinalis [7] = test: Antigiardial activity against metronidazole-resistant Giardia lamblia 713-M3 incubated for 48 hrs; format: functional, organism-based; conditions: Giardia duodenalis, 713-M3, 48 h
Giardia intestinalis [8] = test: Antigiardial activity against Giardia lamblia WBC6 incubated for 48 hrs; format: functional, organism-based; conditions: Giardia duodenalis, WBC6, 48 h
Giardia intestinalis [9] = test: Antigiardial activity against Giardia lamblia 713 incubated for 48 hrs; format: functional, organism-based; conditions: Giardia duodenalis, 713, 48 h
Giardia intestinalis [10] = test: Antigiardial activity against Giardia intestinalis WB incubated for 48 hrs by hemocytometric counting method; format: functional, organism-based; conditions: Giardia duodenalis
Giardia intestinalis [11] = test: Antigiardial activity against Giardia intestinalis N1-INP incubated for 48 hrs followed by hemocytometric counting method; format: functional, organism-based; conditions: Giardia duodenalis
Giardia intestinalis [12] = test: Antigiardial activity against Giardia intestinalis WB30957 incubated for 48 hrs followed by hemocytometric counting method; format: functional, organism-based; conditions: Giardia duodenalis, WB30957, 48 h
Giardia intestinalis [13] = test: Antigiardial activity against Giardia intestinalis IMSS-1090-1 incubated for 48 hrs followed by hemocytometric counting method; format: functional, organism-based; conditions: Giardia duodenalis, IMSS-1090-1, 48 h
Giardia intestinalis [14] = test: Antigiardial activity against Giardia intestinalis UNAM-0688-2 incubated for 48 hrs followed by hemocytometric counting method; format: functional, organism-based; conditions: Giardia duodenalis, UNAM-0688-2, 48 h
Giardia intestinalis [15] = test: Antigiardial activity against Giardia intestinalis BRIS/91/HEPU/1411 incubated for 48 hrs followed by compound wash out by hemocytometric counting method; format: functional, organism-based; conditions: Giardia duodenalis, BRIS/91/HEPU/1411, 48 h
Giardia intestinalis [16] = test: Antigiardial activity against Giardia intestinalis WB ATCC 30957 incubated for 72 hrs by hemocytometric counting method; format: functional, organism-based; conditions: Giardia duodenalis, WB ATCC 30957, 72 h
Giardia intestinalis [17] = test: Antigiardial activity against metronidazole-resistant Giardia duodenalis WB-M3; format: functional
Giardia intestinalis [18] = test: Antigiardial activity against metronidazole-resistant Giardia duodenalis 106-2ID10; format: functional
Giardia intestinalis [19] = test: Antigiardial activity against metronidazole-resistant Giardia duodenalis 713-M3; format: functional
Giardia intestinalis [20] = test: Antigiardial activity against Giardia duodenalis WBC6 trophozoites incubated for 72 hrs under anaerobic condition by resazurin-dye based fluorimetry; format: functional, organism-based; conditions: WBC6, 72 h
Giardia intestinalis [21] = test: Antigiardial activity against Giardia duodenalis WBC6 trophozoites incubated for 48 hrs under microaerophilic condition by methylene blue colorimetric assay; format: functional, organism-based; conditions: WBC6, 48 h
Giardia intestinalis [22] = test: Antigiardial activity against Giardia duodenalis GS/M-83-H7 (ATCC 50581) incubated for 3 days by fluorescence method; format: functional, organism-based; conditions: 72 h
Giardia intestinalis [23] = test: Antigiardial activity against Giardia duodenalis WB (ATCC 30957) incubated for 3 days by fluorescence method; format: functional, organism-based; conditions: WB ATCC 30957, 72 h
Giardia intestinalis [24] = test: Antigiardial activity against Giardia duodenalis G1 incubated for 3 days by fluorescence method; format: functional, organism-based; conditions: G1, 72 h
Giardia intestinalis [25] = test: Antigiardial activity against Giardia duodenalis Ah1 incubated for 3 days by fluorescence method; format: functional, organism-based; conditions: Ah1, 72 h
Giardia intestinalis [26] = test: Antigiardial activity against Giardia duodenalis Ah2 incubated for 3 days by fluorescence method; format: functional, organism-based; conditions: Ah2, 72 h
Giardia intestinalis [27] = test: Antigiardial activity against Giardia duodenalis Ac1 incubated for 3 days by fluorescence method; format: functional, organism-based; conditions: Ac1, 72 h
Giardia intestinalis [28] = test: Antigiardial activity against Giardia duodenalis Ac2 incubated for 3 days by fluorescence method; format: functional, organism-based; conditions: Ac2, 72 h
Giardia intestinalis [29] = test: Antigiardial activity against Giardia duodenalis Ec1 incubated for 3 days by fluorescence method; format: functional, organism-based; conditions: Ec1, 72 h
Giardia intestinalis [30] = test: Antigiardial activity against Giardia duodenalis Ec2 incubated for 3 days by fluorescence method; format: functional, organism-based; conditions: Ec2, 72 h
Giardia intestinalis [31] = test: Antigiardial activity against Giardia lamblia WB (ATCC 30957) incubated for 3 days by [3H]thymidine incorporation based assay; format: functional, organism-based; conditions: Giardia duodenalis
Giardia intestinalis [32] = test: Growth inhibition of Giardia duodenalis isolate 14-03/F7 measured after 24 hrs by resazurin based assay; format: functional, organism-based; conditions: isolate 14-03/F7, 24 h
Giardia intestinalis [33] = test: Antigiardial activity against Giardia duodenalis BRIS/91/HEPU/1279 incubated for 3 days followed by compound wash-out and measured after 4 days; format: functional; conditions: time 3 day
Giardia intestinalis [34] = test: Antigiardial activity against Giardia duodenalis BRIS/83/HEPU/106 incubated for 3 days followed by compound wash-out and measured after 4 days; format: functional; conditions: time 3 day
Giardia intestinalis [35] = test: Antigiardial activity against metronidazole-resistant Giardia duodenalis BRIS/83/HEPU/106-2ID10 incubated for 3 days followed by compound wash-out and measured after 4 days; format: functional; conditions: time 3 day
Giardia intestinalis [36] = test: Antigiardial activity against metronidazole-resistant Giardia duodenalis WB1B-M3 incubated for 3 days followed by compound wash-out and measured after 4 days; format: functional; conditions: time 3 day
Giardia intestinalis [37] = test: Antigiardial activity against Giardia intestinalis incubated for 48 hrs; format: functional, organism-based; conditions: Giardia duodenalis
[38] = Half-life of the compound; format: physicochemical
Giardia intestinalis [39] = test: Antigiardial activity against Giardia lamblia P1 incubated for 48 hrs by haemocytometric counting method; format: functional, organism-based; conditions: Giardia duodenalis, P1, 48 h
Giardia intestinalis [40] = test: Antigiardial activity against Giardia lamblia WB incubated for 48 hrs by microscopic method; format: functional, organism-based; conditions: Giardia duodenalis
Giardia intestinalis [41] = test: Antigiardial activity against Giardia lamblia H/7 incubated for 48 hrs by microscopic method; format: functional, organism-based; conditions: Giardia duodenalis, H/7, 48 h

Cc1ncc([N+](=O)[O-])n1CC(C)OC(=O)NC1CCCCC1 (stereo not drawn)
IC50 (Giardia intestinalis [1]): 0.5 µM

Cc1ncc([N+](=O)[O-])n1CC(C)O (stereo not drawn) [SECNIDAZOLE]
IC50 (Giardia intestinalis [1]): 4.1 µM

CCN(CC)C(=S)SSC(=S)N(CC)CC
IC50 (Giardia intestinalis [2]): 0.9 µM
MLC (Giardia intestinalis [3]): 0.8 µM (≈ 0.237 µg/mL)
MLC (Giardia intestinalis [4]): 1.5 µM (≈ 0.445 µg/mL)

CC(=O)c1ccc(-c2cn(CCn3c([N+](=O)[O-])cnc3/C=C/c3ccco3)nn2)cc1
IC50 (Giardia intestinalis [5]): 0.003 µM
selectivity ratio at 48 h [6]: > 16800

Cc1ncc([N+](=O)[O-])n1CCOC(=O)NC1CCCCC1
IC50 (Giardia intestinalis [1]): 0.5 µM

CCOc1ccc2cc(-c3nc(C(C)(C)C)n4ccnc(N)c34)ccc2c1
EC50 (Giardia intestinalis [7]): 0.6 µM
EC50 (Giardia intestinalis [8]): 0.6 µM
EC50 (Giardia intestinalis [9]): 1.2 µM

CSc1nc2cc(Cl)c(C(=O)Nc3ncc([N+](=O)[O-])s3)cc2n1C
IC50 (Giardia intestinalis [10]): 0.01 µM
IC50 (Giardia intestinalis [11]): 0.071 µM
IC50 (Giardia intestinalis [12]): 0.01 µM
IC50 (Giardia intestinalis [13]): 0.01 µM
IC50 (Giardia intestinalis [14]): 0.01 µM
IC50 (Giardia intestinalis [15]): 0.01 µM

Cc1ncc([N+](=O)[O-])n1CCNC(=O)/C=C/c1ccc([N+](=O)[O-])o1
IC50 (Giardia intestinalis [16]): 5.6 µM

Cc1ccc(C(Br)C(Br)c2ncc([N+](=O)[O-])n2C)cc1 (stereo not drawn)
MIC (Giardia intestinalis [17]): 5 µM (≈ 2.02 µg/mL)
MIC (Giardia intestinalis [18]): 5 µM (≈ 2.02 µg/mL)
MIC (Giardia intestinalis [19]): 10 µM (≈ 4.03 µg/mL)

O=[N+]([O-])c1ccc(SCCCCCCO)c2nonc12
IC50 (Giardia intestinalis [20]): 0.6 µM
IC50 (Giardia intestinalis [21]): 0.3 µM

O=C(/C=C/c1ccc([N+](=O)[O-])o1)N1CCN(c2ccnc3cc(Cl)ccc23)CC1
IC50 (Giardia intestinalis [16]): 145 µM

Cc1ncc([N+](=O)[O-])n1CCOC(=O)Nc1ccc(F)cc1
IC50 (Giardia intestinalis [1]): 0.5 µM

Cc1ncc([N+](=O)[O-])n1CCO [METRONIDAZOLE]
IC50 (Giardia intestinalis [22]): 0.5 µM
IC50 (Giardia intestinalis [23]): 0.5 µM
IC50 (Giardia intestinalis [24]): 0.5 µM
IC50 (Giardia intestinalis [25]): 0.5 µM
IC50 (Giardia intestinalis [26]): 0.5 µM
IC50 (Giardia intestinalis [27]): 0.5 µM
IC50 (Giardia intestinalis [28]): 0.5 µM
IC50 (Giardia intestinalis [29]): 0.5 µM
IC50 (Giardia intestinalis [30]): 0.5 µM
IC50 (Giardia intestinalis [31]): 0.5 µM
IC50 (Giardia intestinalis [32]): 6.2 µM
MLC (Giardia intestinalis [33]): 50 µM (≈ 8.56 µg/mL)
MLC (Giardia intestinalis [34]): 100 µM (≈ 17.1 µg/mL)
MLC (Giardia intestinalis [35]): >500 µM
MLC (Giardia intestinalis [36]): >500 µM
IC50 (Giardia intestinalis [1]): 4.4 µM
IC50 (Giardia intestinalis [37]): 1 µM
half-life [38]: 6 h

COC(=O)Nc1nc2ccc(C(=O)c3ccccc3)cc2[nH]1 [MEBENDAZOLE]
IC50 (Giardia intestinalis [39]): 0.06 µM
IC50 (Giardia intestinalis [40]): 0.06 µM
IC50 (Giardia intestinalis [41]): 0.06 µM
half-life [38]: 2.5 h

Cc1ncc([N+](=O)[O-])n1CC(C)OC(=O)Nc1ccc(F)cc1 (stereo not drawn)
IC50 (Giardia intestinalis [1]): 0.5 µM
